# Experimental data taken from publication PMC8037142, “Design, Synthesis, Molecular Modeling and Antitumor Evaluation of Novel Indolyl-Pyrimidine Derivatives with EGFR Inhibitory Activity” (Molecules, 2021).
# Where two headings read alike, the source gives them in different places.
# Experiments:
# [1] = tested on: MCF-7 breast cancer cell line; experiment: Resazurin Cell Growth Inhibition Assay, MCF-7; type: cell-based; settings: Homo sapiens, MCF7; MCF-7, 48 h, mean ± SD of three experiments; read-out: Cytotoxic Activity IC50
# Procedure: (§1) Compounds 1–4 were assessed for their in vitro cytotoxic activity against three human cell lines i.e., breast (MCF-7), liver (HepG2), colon (HCT-116) cancer cell lines as well as in lung fibroblast (WI38) normal cell line using the Resazurin Cell Growth Inhibition Assay. Both erlotinib and 5-Fluorouracil (5-FU) were used as reference drugs. Concentrations of the tested compounds that give about 50% inhibition of cell viability (IC50, mean of triplicate) in µM were obtained. […] However, if replaced by a hydrazone substituent, a more prominent efficacy toward the three cancer cell lines was observed. […] The most promising in vitro antiproliferative activity was obtained when the hydrazone is bearing electron-withdrawal groups i.e., 4-chlorobenzylidene moiety (compound 3f), 3,4-dichloro benzylidene moiety (compound 3g) and 4-fluorobenzylidene moiety (compound 3h) compared to the standard treatment (Table 1, Figure 5). The inhibitory activity of compounds was reduced when the hydrazone group is bearing electron donating groups i.e., 4-methyl group (compound 3b), 2-methoxy group (compound 3c), 4-hydroxy (compound 3d) and 4-dimethylamino group (compound 3e). The trend of antiproliferative activity of compounds […] against all tested cell lines has the following descending order: (3g > 3h >3f >3a >3b > 3c > 3d > 3e). […]. […] This is mainly because this compound has the highest lipophilicity as well as less electron density as it has 2-Cl atoms (more electronegativity) on the indolyl pyrimidine-thiazolidinone.
# (§2) In vitro cytotoxicity was measured according to the Resazurin Cell Growth Inhibition Assay Alamar Blue or Resazurin (Promega, Mannheim, Germany) reduction assay was used to assess the cytotoxicity of the studied samples. The assay tests cellular viability and mitochondrial function. Briefly, adherent cells were grown in tissue culture flasks, and then harvested by treating the flasks with 0.025% trypsin and 0.25 mM EDTA for 5 min. Once detached, cells were washed, counted, and an aliquot (5 × 10^3 cells) were placed in each well of a 96-well cell culture plate in a total volume of […]. Cells were allowed to attach overnight and then treated with samples. […]. Each assay was performed as triplicates. […] […]. The viability was compared based on a comparison with untreated cells. IC50 (on cancer cells) were the concentration of sample required to inhibit 50% of the cell proliferation and were calculated from a calibration curve by a linear regression using Microsoft Excel.
# [2] = Resazurin Cell Growth Inhibition Assay, WI38 normal cells; type: cell-based; settings: human, WI38 normal lung fibroblast cells, WI-38 normal cells, mean ± SD of three experiments, read-out: Cytotoxic Activity IC50
# Procedure: as §1, §2
# [3] = tested on: HepG2 liver cancer cell line; experiment: Resazurin Cell Growth Inhibition Assay, HepG2; type: cell-based, human
# Procedure: as §1, §2
# [4] = tested on: HCT-116 colon cancer cell line; experiment: Resazurin Cell Growth Inhibition Assay, HCT-116; type: cell-based, human
# Procedure: as §1, §2
# [5] = tested on: Ehrlich ascites carcinoma (EAC); experiment: In vivo antitumor assay in EAC tumor bearing mice; settings: 0.5 mg/mouse for nine days
# Procedure: The antitumor activity of these compounds was assessed by the change in tumor volume, viable cell count, mean survival time (MST) and % increase in lifespan (% ILS) of the EAC tumor bearing mice and 5-FU (standard treatment). The mean survival time (MST) and % increase in lifespan (% ILS) of EAC tumor bearing mice, as well as the influence of these compounds on viable tumor cells and the tumor volume, are shown in Table 2. The hematological profile of these mice was also assessed in comparison with the standard treatment with 5-FU, and no obvious effect on RBCs or WBCs was observed. […] MST = (day of first death + day of last death)/2 %ILS = [(MST of treated group/MST of control group) − 1] × 100 […]
# In vivo antitumor evaluation was carried out as previously reported (see Supplementary Materials).
# 2. Biological Evaluation Details: a) In vivo antitumor assay: Materials . Adult Swiss male mice (weighing 20 -25 g) were obtained from the Department of Pharmacology, Faculty of Pharmacy, Mansoura University, Egypt.
# They were kept in microlon boxes at temperature 25 ± 2 °C with a regular 12 hrs light/dark cycle. In addition, food and water were available. EAC cells (procured from NCI, Cairo, Egypt) were harvested and prepared, then their total number was counted.
# Procedure. 7 Groups of mice ( n = 4) were used.
# Group 1: Negative control (no EAC cells) - received normal saline.
# Group 2: Positive control (EAC cells) - received normal saline.
# Group 3: EAC cells - treated with compound 3g (0.5 mg/mouse).
# Group 4: EAC cells - treated with compound 4f (0.5 mg/mouse).
# Group 5: EAC cells - treated with compound 4g (0.5 mg/mouse).
# Group 6: EAC cells - treated with compound 4h (0.5 mg/mouse).
# Group 7: EAC cells - treated with 5-fluorouracil (0.5 mg/mouse).
# 2 x 10^6 EAC cells were injected intraperitoneally in each mouse (groups 2-7). After […]
# for nine days, then blood samples were withdrawn for assessment of blood count.
# Determination of tumor volume
# The ascetic fluid was gathered from the peritoneal cavity and its volume was determined. It was then centrifuged, and the packed tumor cell volume was measured.
# Determination of viable tumor cell count
# 100 μL Sample of EAC cells (from three mice per group) was utilized and diluted twenty times with saline. Cells were stained with trypan blue, viable cells are not stained, while the dead ones are stained. The number of viable cells was calculated.
# [6] = Homo sapiens, HepG2, 48 h, mean ± SD of three experiments, read-out: Cytotoxic Activity IC50
# [7] = Homo sapiens, HCT-116, 48 h, mean ± SD of three experiments, read-out: Cytotoxic Activity IC50
Compound,IC50 [1] [µM],IC50 at 48 h [2] [µM],"IC50 [3, 6] [µM]","IC50 [4, 7] [µM]",melting point [°C],Tumor Volume ([5]; ascitic fluid) [mL],MST (mean survival time) ([5]; mean of two experiments) [days],Viable Tumor Cell Count ([5]; trypan blue),"IC50 ([3]; Homo sapiens; HepG2, 48 h, mean ± SD of three experiments; read-out: Cytotoxic Activity IC50) [µM]","IC50 ([4]; Homo sapiens; HCT-116, 48 h, mean ± SD of three experiments; read-out: Cytotoxic Activity IC50) [µM]"
CC1=C(C(=O)N/N=C/c2ccccc2)C(c2c[nH]c3ccccc23)NC(=S)N1 (centres unmarked) [Compound 3a],17 ± 1.8,38.2 ± 2.1,19.2 ± 1.5,15.2 ± 2.32,,,,,,
"CC1=C(C(=O)NN=Cc2ccc(C)cc2)C(c2c[nH]c3ccccc23)NC(=S)N1 (centres unmarked) [Compound 3b, 4-(1H-indol-3-yl)-6-methyl-2-thioxo-1,2,3,4-tetrahydropyrimidine-5-carboxylic acid (4-methyl-benzylidene)-hydrazide]",18.5 ± 2.11,39.1 ± 1.3,19.4 ± 2.19,15.6 ± 3.15,240 to 242,,,,,
"COc1ccccc1/C=N/NC(=O)C1=C(C)NC(=S)NC1c1c[nH]c2ccccc12 (centres unmarked) [Compound 3c, 4-(1H-indol-3-yl)-6-methyl-2-thioxo-1,2,3,4-tetrahydropyrimidine-5-carboxylic acid (2-methoy-benzylidene)-hydrazide]",18.9 ± 2,37.4 ± 1.49,19.9 ± 2.06,16.3 ± 4.16,220 to 222,,,,,
CC1=C(C(=O)N/N=C/c2ccccc2O)C(c2c[nH]c3ccccc23)NC(=S)N1 (centres unmarked) [Compound 3d],19.2 ± 2.35,35.3 ± 2.42,20.2 ± 2.33,16.6 ± 1.27,,,,,,
"CC1=C(C(=O)NN=Cc2ccc(N(C)C)cc2)C(c2c[nH]c3ccccc23)NC(=S)N1 (centres unmarked) [Compound 3e, 4-(1H-indol-3-yl)-6-methyl-2-thioxo-1,2,3,4-tetrahydropyrimidine-5-carboxylic acid (4-dimethylamino-benzylidene)-hydrazide]",19.8 ± 2.7,40 ± 2.31,20.4 ± 2.3,16.2 ± 1.15,180 to 182,,,,,
CC1=C(C(=O)N/N=C/c2ccc(Cl)cc2)C(c2c[nH]c3ccccc23)NC(=S)N1 (centres unmarked) [Compound 3f],10.7 ± 2.3,29.8 ± 1.51,10.6 ± 2.32,10.2 ± 1.18,,,,,,
CC1=C(C(=O)N/N=C/c2ccc(F)cc2)C(c2c[nH]c3ccccc23)NC(=S)N1 (centres unmarked) [Compound 3h],10.2 ± 2.01,28.1 ± 4.22,10.4 ± 2.08,10.1 ± 2.45,,,,,,
"CC1=C(C(=O)NN2C(=O)CSC2c2ccccc2)C(c2c[nH]c3ccccc23)NC(=S)N1 (centres unmarked) [Compound 4a, 4-(1H-indol-3-yl)-6-methyl-N-(4-oxo-2-phenylthiazolidin-3-yl)-2-thioxo-1,2,3,4-tetrahydropyrimidine-5-carboxamide]",11.2 ± 4.31,38 ± 5.51,17 ± 4.3,12.3 ± 2.17,270 to 272,,,,,
"CC1=C(C(=O)NN2C(=O)CSC2c2ccc(C)cc2)C(c2c[nH]c3ccccc23)NC(=S)N1 (centres unmarked) [Compound 4b, 4-(1H-indol-3-yl)-6-methyl-N-(4-oxo-2-(p-tolyl)thiazolidin-3-yl)-2-thioxo-1,2,3,4-tetrahydropyrimidine-5-carboxamide]",11.6 ± 3.22,39.8 ± 4.51,18 ± 3.2,12.6 ± 1.05,220 to 222,,,,,
"COc1ccccc1C1SCC(=O)N1NC(=O)C1=C(C)NC(=S)NC1c1c[nH]c2ccccc12 (centres unmarked) [Compound 4c, 4-(1H-indol-3-yl)-N-(2-(2-methoxyphenyl)-4-oxothiazolidin-3-yl)-6-methyl-2-thioxo-1,2,3,4-tetrahydropyrimidine-5-carboxamide]",12.3 ± 4.08,29.5 ± 4.02,18.5 ± 4.38,13.2 ± 1.03,200 to 202,,,,,
"O=c1[nH]cc(F)c(=O)[nH]1 [Compound 5-FU, 5-Fluorouracil, reference compound]",5.38 ± 0.24,5.7 ± 1.5,,,,0.80,53.0,19.07 10^6/mL,5.34 ± 0.4,7.88 ± 0.2
"C#Cc1cccc(Nc2ncnc3cc(OCCOC)c(OCCOC)cc23)c1 [erlotinib, reference compound]",6.65 ± 0.82,22.5 ± 0.65,,7.49 ± 0.65,,,,,,
